Measured values as given in patent US20050197350A1, “Novel quinoline, tetrahydroquinazoline, and pyrimidine derivatives and methods of treatment related to the use thereof” (TAISHO PHARMACEUTICAL CO., LTD., priority 2003, published 2005).

Each compound was assayed on MCH receptors (assay: MCH receptor activity class (method not given)). Details: class by percent of control at 10^-7 M or IC50.
`CN(C)c1cc(N[C@H]2CC[C@@H](CNC(=O)c3c(Cl)cc(Cl)cc3Cl)CC2)nc2ccccc12` [compound 233] was tested, and the class was 1 (Class 1: The value of percent of control at 10^−7 M was less than 40% or the value of IC50 was less than 50 nM.).
In the case of `CN(C)c1cc(N[C@H]2CC[C@@H](CNC(=O)/C=C/c3ccccc3Cl)CC2)nc2ccccc12` [compound 234, (2E)-3-(2-chlorophenyl)-N-[(cis-4-{[4-(dimethylamino)quinolin-2-yl]amino}cyclohexyl)methyl]acrylamide], the class is reported as 2 (Class 2: The value of percent of control at 10^−7 M was from 40% to 60% or the value of IC′50 was from 50 nM to 200 nM.).
`Cc1ccc(Cl)c(C(=O)NC[C@H]2CC[C@@H](Nc3cc(N(C)C)c4ccccc4n3)CC2)c1F` [compound 235] was tested, and the class was 3 (Class 3 The value of percent of control at 10^−7 M was more than 60% or the value of IC50 was more than 200 nM.).
In the case of `CN(C)c1cc(N[C@H]2CC[C@@H](CNC(=O)c3c(F)ccc(F)c3Cl)CC2)nc2ccccc12` [compound 236], the class is reported as 3 (Class 3 The value of percent of control at 10^−7 M was more than 60% or the value of IC50 was more than 200 nM.).
For `Cc1cccc(C(=O)NC[C@H]2CC[C@@H](Nc3cc(N(C)C)c4ccccc4n3)CC2)c1C` [compound 237], the class was 3 (Class 3 The value of percent of control at 10^−7 M was more than 60% or the value of IC50 was more than 200 nM.).
In the case of `COc1cccc(C(=O)N[C@H]2CC[C@@H](Nc3nccc(N(C)C)n3)CC2)c1` [compound 238, N-(cis-4-{[4-(dimethylamino)pyrimidin-2-yl]amino}cyclohexyl)-3-methoxybenzamide], the class is reported as 2 (Class 2: The value of percent of control at 10^−7 M was from 40% to 60% or the value of IC′50 was from 50 nM to 200 nM.).
`CN(C)c1ccnc(N[C@H]2CC[C@@H](NC(=O)c3cccc(Br)c3)CC2)n1` [compound 239] was tested, and the class was 1 (Class 1: The value of percent of control at 10^−7 M was less than 40% or the value of IC50 was less than 50 nM.).
With `CN(C)c1ccnc(N[C@H]2CC[C@@H](NC(=O)c3ccc(Br)cc3)CC2)n1` [compound 240] the class was 3 (Class 3 The value of percent of control at 10^−7 M was more than 60% or the value of IC50 was more than 200 nM.).
With `CN(C)c1ccnc(N[C@H]2CC[C@@H](NC(=O)c3ccc4nonc4c3)CC2)n1` [compound 241, N-(cis-4-{[4-(dimethylamino)pyrimidin-2-yl]amino}cyclohexyl)-2,1,3-benzoxadiazole-5-carboxamide] the class was 1 (Class 1: The value of percent of control at 10^−7 M was less than 40% or the value of IC50 was less than 50 nM.).
`CN(C)c1ccnc(N[C@H]2CC[C@@H](NC(=O)c3cccc(Cl)c3)CC2)n1` [compound 242] was tested, and the class was 1 (Class 1: The value of percent of control at 10^−7 M was less than 40% or the value of IC50 was less than 50 nM.).
In the case of `CN(C)c1ccnc(N[C@H]2CC[C@@H](NC(=O)c3ccc(Cl)cc3)CC2)n1` [compound 243], the class is reported as 2 (Class 2: The value of percent of control at 10^−7 M was from 40% to 60% or the value of IC′50 was from 50 nM to 200 nM.).
With `CN(C)c1ccnc(N[C@H]2CC[C@@H](NC(=O)/C=C/c3ccccc3)CC2)n1` [compound 244] the class was 3 (Class 3 The value of percent of control at 10^−7 M was more than 60% or the value of IC50 was more than 200 nM.).
With `CN(C)c1ccnc(N[C@H]2CC[C@@H](NC(=O)c3ccc(Cl)c([N+](=O)[O-])c3)CC2)n1` [compound 245, 4-chloro-N-(cis-4-{[4-(dimethylamino)pyrimidin-2-yl]amino}cyclohexyl)-3-nitrobenzamide] the class was 1 (Class 1: The value of percent of control at 10^−7 M was less than 40% or the value of IC50 was less than 50 nM.).
For `CN(C)c1ccnc(N[C@H]2CC[C@@H](NC(=O)Cc3ccc(Cl)cc3)CC2)n1` [compound 246], the class was 3 (Class 3 The value of percent of control at 10^−7 M was more than 60% or the value of IC50 was more than 200 nM.).
`CN(C)c1ccnc(N[C@H]2CC[C@@H](NC(=O)c3cccc(C#N)c3)CC2)n1` [compound 247] was tested, and the class was 3 (Class 3 The value of percent of control at 10^−7 M was more than 60% or the value of IC50 was more than 200 nM.).
For `CN(C)c1ccnc(N[C@H]2CC[C@@H](NC(=O)c3cc(Cl)cc(Cl)c3)CC2)n1` [compound 248], the class was 1 (Class 1: The value of percent of control at 10^−7 M was less than 40% or the value of IC50 was less than 50 nM.).
For `CN(C)c1ccnc(N[C@H]2CC[C@@H](NC(=O)c3ccc(Cl)c(Cl)c3)CC2)n1` [compound 249], the class was 1 (Class 1: The value of percent of control at 10^−7 M was less than 40% or the value of IC50 was less than 50 nM.).
`CN(C)c1ccnc(N[C@H]2CC[C@@H](NC(=O)C(c3ccccc3)c3ccccc3)CC2)n1` [compound 250, N-(cis-4-{[4-(dimethylamino)pyrimidin-2-yl]amino}cyclohexyl)-2,2-diphenylacetamide] was tested, and the class was 2 (Class 2: The value of percent of control at 10^−7 M was from 40% to 60% or the value of IC′50 was from 50 nM to 200 nM.).
For `CN(C)c1ccnc(N[C@H]2CC[C@@H](NC(=O)c3ccc(F)c(F)c3)CC2)n1` [compound 251, N-(cis-4-{[4-(dimethylamino)pyrimidin-2-yl]amino}cyclohexyl)-3,4-difluorobenzamide], the class was 1 (Class 1: The value of percent of control at 10^−7 M was less than 40% or the value of IC50 was less than 50 nM.).
`CN(C)c1ccnc(N[C@H]2CC[C@@H](NC(=O)c3cc(F)cc(F)c3)CC2)n1` [compound 252, N-(cis-4-{[4-(dimethylamino)pyrimidin-2-yl]amino}cyclohexyl)-3,5-difluorobenzamide] was tested, and the class was 2 (Class 2: The value of percent of control at 10^−7 M was from 40% to 60% or the value of IC′50 was from 50 nM to 200 nM.).
With `COc1ccc(OC)c(CC(=O)N[C@H]2CC[C@@H](Nc3nccc(N(C)C)n3)CC2)c1` [compound 253] the class was 3 (Class 3 The value of percent of control at 10^−7 M was more than 60% or the value of IC50 was more than 200 nM.).
With `CCSc1ncccc1C(=O)N[C@H]1CC[C@@H](Nc2nccc(N(C)C)n2)CC1` [compound 254] the class was 3 (Class 3 The value of percent of control at 10^−7 M was more than 60% or the value of IC50 was more than 200 nM.).
`CN(C)c1ccnc(N[C@H]2CC[C@@H](NC(=O)c3ccc(F)cc3)CC2)n1` [compound 255, N-(cis-4-{[4-(dimethylamino)pyrimidin-2-yl]amino}cyclohexyl)-4-fluorobenzamide] was tested, and the class was 3 (Class 3 The value of percent of control at 10^−7 M was more than 60% or the value of IC50 was more than 200 nM.).
With `CN(C)c1ccnc(N[C@H]2CC[C@@H](NC(=O)c3cc(F)cc(C(F)(F)F)c3)CC2)n1` [compound 256, N-(cis-4-{[4-(dimethylamino)pyrimidin-2-yl]amino}cyclohexyl)-3-fluoro-5-(trifluoromethyl)benzamide] the class was 2 (Class 2: The value of percent of control at 10^−7 M was from 40% to 60% or the value of IC′50 was from 50 nM to 200 nM.).
With `CN(C)c1ccnc(N[C@H]2CC[C@@H](NC(=O)c3cc(F)c(Cl)cc3Cl)CC2)n1` [compound 257] the class was 3 (Class 3 The value of percent of control at 10^−7 M was more than 60% or the value of IC50 was more than 200 nM.).
In the case of `CCCCCC(=O)N[C@H]1CC[C@@H](Nc2nccc(N(C)C)n2)CC1` [compound 258], the class is reported as 3 (Class 3 The value of percent of control at 10^−7 M was more than 60% or the value of IC50 was more than 200 nM.).
In the case of `CN(C)c1ccnc(N[C@H]2CC[C@@H](NC(=O)c3ccc(I)cc3)CC2)n1` [compound 259], the class is reported as 3 (Class 3 The value of percent of control at 10^−7 M was more than 60% or the value of IC50 was more than 200 nM.).
`CSc1ncccc1C(=O)N[C@H]1CC[C@@H](Nc2nccc(N(C)C)n2)CC1` [compound 260] was tested, and the class was 3 (Class 3 The value of percent of control at 10^−7 M was more than 60% or the value of IC50 was more than 200 nM.).
With `Cc1ccc(C(=O)N[C@H]2CC[C@@H](Nc3nccc(N(C)C)n3)CC2)cc1[N+](=O)[O-]` [compound 261, N-(cis-4-{[4-(dimethylamino)pyrimidin-2-yl]amino}cyclohexyl)-4-methyl-3-nitrobenzamide] the class was 2 (Class 2: The value of percent of control at 10^−7 M was from 40% to 60% or the value of IC′50 was from 50 nM to 200 nM.).
With `CN(C)c1ccnc(N[C@H]2CC[C@@H](NC(=O)c3cccc([N+](=O)[O-])c3)CC2)n1` [compound 262, N-(cis-4-{[4-(dimethylamino)pyrimidin-2-yl]amino}cyclohexyl)-3-nitrobenzamide] the class was 1 (Class 1: The value of percent of control at 10^−7 M was less than 40% or the value of IC50 was less than 50 nM.).
With `CN(C)c1ccnc(N[C@H]2CC[C@@H](NC(=O)Cc3ccccc3)CC2)n1` [compound 263] the class was 3 (Class 3 The value of percent of control at 10^−7 M was more than 60% or the value of IC50 was more than 200 nM.).
`CN(C)c1ccnc(N[C@H]2CC[C@@H](NC(=O)C3C[C@H]3c3ccccc3)CC2)n1` (stereo partly shown) [compound 264] was tested, and the class was 3 (Class 3 The value of percent of control at 10^−7 M was more than 60% or the value of IC50 was more than 200 nM.).
With `CN(C)c1ccnc(N[C@H]2CC[C@@H](NC(=O)c3ccc4c(c3)OCO4)CC2)n1` [compound 265] the class was 3 (Class 3 The value of percent of control at 10^−7 M was more than 60% or the value of IC50 was more than 200 nM.).
`Cc1cccc(C(=O)N[C@H]2CC[C@@H](Nc3nccc(N(C)C)n3)CC2)c1` [compound 268, N-(cis-4-{[4-(dimethylamino)pyrimidin-2-yl]amino}cyclohexyl)-3-methylbenzamide] was tested, and the class was 2 (Class 2: The value of percent of control at 10^−7 M was from 40% to 60% or the value of IC′50 was from 50 nM to 200 nM.).
In the case of `Cc1ccc(C(=O)N[C@H]2CC[C@@H](Nc3nccc(N(C)C)n3)CC2)cc1` [compound 269], the class is reported as 3 (Class 3 The value of percent of control at 10^−7 M was more than 60% or the value of IC50 was more than 200 nM.).
For `CN(C)c1ccnc(N[C@H]2CC[C@@H](NC(=O)c3cccs3)CC2)n1` [compound 270], the class was 3 (Class 3 The value of percent of control at 10^−7 M was more than 60% or the value of IC50 was more than 200 nM.).
With `CN(C)c1ccnc(N[C@H]2CC[C@@H](NC(=O)Cc3cccs3)CC2)n1` [compound 271] the class was 3 (Class 3 The value of percent of control at 10^−7 M was more than 60% or the value of IC50 was more than 200 nM.).
